The source of these data is article PMC3265476, “Functional Characterization of MODY2 Mutations Highlights the Importance of the Fine-Tuning of Glucokinase and Its Role in Glucose Sensing” (PLoS ONE, 2012).

What all share (assay type): biochemical
Assay [1] addresses T1, GST-GK(p.Ala449Thr) (Homo sapiens, UniProt P35557, A449T).
T1 construct: made in house; host or cells: E. coli
T1 sequence (P35557 1-465 A449T): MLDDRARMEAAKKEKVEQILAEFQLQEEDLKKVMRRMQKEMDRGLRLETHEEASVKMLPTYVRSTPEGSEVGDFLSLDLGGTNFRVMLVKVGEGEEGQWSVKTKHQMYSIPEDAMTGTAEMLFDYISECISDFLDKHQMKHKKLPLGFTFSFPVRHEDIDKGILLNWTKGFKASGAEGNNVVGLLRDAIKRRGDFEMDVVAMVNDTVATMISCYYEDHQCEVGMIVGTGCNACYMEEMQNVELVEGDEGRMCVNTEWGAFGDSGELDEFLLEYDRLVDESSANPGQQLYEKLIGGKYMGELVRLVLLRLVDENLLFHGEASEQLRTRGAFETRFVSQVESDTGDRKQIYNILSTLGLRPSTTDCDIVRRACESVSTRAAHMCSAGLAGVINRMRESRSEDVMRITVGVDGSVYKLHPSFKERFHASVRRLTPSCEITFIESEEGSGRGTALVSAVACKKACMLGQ
The assay is described as follows: Inhibition of glucokinase activity by NAG and MH, Dixon plots. The conditions noted are these: for IC50: glucose 1, 1.5 and 2 mM, 180 nM protein. The procedure: (§1) Glucokinase activity was measured spectrophotometrically on a spectrophotometer Uviconxl (Secoman), using an NADP^+-coupled assay with glucose-6-phosphate dehydrogenase, as described previously. The final reaction mixture contained 100 mM Tris pH 7.4, 150 mM KCl, 1 mM MgCl2, 1.4 mM ß-mercaptoethanol, 0.1% BSA, 5 mM ATP-MgCl2, 1 mM NADP^+, and 1 U/ml glucose-6-phosphate dehydrogenase. Determination of kinetic parameters and thermal stability tests were performed as in [20]. […] Inhibition by NAG and MH was determined under standard assay conditions with 50 nM glucokinase. The inhibition by palmitoylCoA was determined in reaction mixtures containing 25 mM Hepes pH 7.1; 25 mM KCl; 1 mM NADP, 1 mM ATP-MgCl2; 2.5 mM MgCl2; 5 mM ß-mercaptoethanol, 1 U/ml glucose-6-phosphate dehydrogenase and 61 nM glucokinase. Due to the low Kcat value of mutant GST-GK(pAla449Thr), the amount of protein used in inhibition assays was 180 nM to get sufficient activity to allow for accurate determination of the inhibitor effect. In these conditions, GK activity (U/mg of GST-GK(pAla449Thr)) in the absence of inhibitors was 1.3±0.08, 1.1±0.06 and 0.9±0.05 at 2, 1.5 and 1 mM of glucose, respectively for NAG and MH assays and 0.5±0.05, 0.33±0.03 and 0.27±0.03 at 2, 1.5 and 1 mM glucose, respectively for palmitoyl-CoA assay.

The target of assay [2] is T2, Wild-type GST-GK (Homo sapiens, UniProt P35557).
T2 construct: made in house; host or cells: E. coli
T2 sequence (P35557 1-465): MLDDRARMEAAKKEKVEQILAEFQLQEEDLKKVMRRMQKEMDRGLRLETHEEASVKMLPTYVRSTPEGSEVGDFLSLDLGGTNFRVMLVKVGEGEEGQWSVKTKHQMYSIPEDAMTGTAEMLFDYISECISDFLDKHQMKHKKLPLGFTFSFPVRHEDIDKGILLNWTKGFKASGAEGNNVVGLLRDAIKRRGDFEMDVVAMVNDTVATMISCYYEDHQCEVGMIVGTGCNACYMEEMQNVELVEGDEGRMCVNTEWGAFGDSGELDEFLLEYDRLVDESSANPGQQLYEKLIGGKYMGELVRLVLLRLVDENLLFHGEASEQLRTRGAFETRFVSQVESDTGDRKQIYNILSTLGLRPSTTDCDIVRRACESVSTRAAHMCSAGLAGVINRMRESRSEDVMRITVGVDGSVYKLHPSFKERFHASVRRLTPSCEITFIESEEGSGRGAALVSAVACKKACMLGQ
Described as above. To be noted: glucose 2, 5 and 8 mM, 50 nM glucokinase. The procedure:
as §1

The target of assay [3] is T3, GST-GK(p.Gly223Ser) (Homo sapiens, UniProt P35557, G223S).
T3 construct: made in house; host or cells: E. coli
T3 sequence (P35557 1-465 G223S): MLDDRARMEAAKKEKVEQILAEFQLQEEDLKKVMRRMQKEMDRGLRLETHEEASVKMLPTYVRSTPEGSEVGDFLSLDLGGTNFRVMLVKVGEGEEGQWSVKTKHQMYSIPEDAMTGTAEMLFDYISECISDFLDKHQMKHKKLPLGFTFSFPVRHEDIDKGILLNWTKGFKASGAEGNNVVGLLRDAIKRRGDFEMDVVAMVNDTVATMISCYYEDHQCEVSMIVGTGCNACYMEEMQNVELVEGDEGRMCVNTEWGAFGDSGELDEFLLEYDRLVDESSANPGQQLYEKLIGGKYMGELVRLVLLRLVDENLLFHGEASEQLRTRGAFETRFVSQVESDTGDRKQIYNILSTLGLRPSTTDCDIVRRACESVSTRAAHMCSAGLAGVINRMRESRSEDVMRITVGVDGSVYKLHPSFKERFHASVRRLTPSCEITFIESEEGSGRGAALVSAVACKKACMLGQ
Described as above. The conditions noted are these: glucose 12.5, 25 and 50 mM. Here is the method: as §1

The target of assay [4] is T1, GST-GK(p.Ala449Thr). As to the kind of experiment: Inhibition of glucokinase activity by palmitoyl-CoA, Dixon plots. The procedure:
as §1

The target of assay [5] is T2, Wild-type GST-GK. The description is as above. The conditions noted are these: glucose 2, 5 and 8 mM; 61 nM glucokinase; read-out: I50 for palmitoyl-CoA. The procedure:
as §1

Assay [6] concerns the target T3, GST-GK(p.Gly223Ser). The assay is described as above. The conditions noted are these: glucose 12.5, 25 and 50 mM; read-out: I50 for palmitoyl-CoA. The procedure:
as §1

Assay [7] deals with T1, GST-GK(p.Ala449Thr). As to the kind of experiment: Effect of GK synthetic activator on kinetic parameters. The procedure: as §1
(§2) GK activator LY2121260 was kindly provided by Elli Lilly and Co, Indianapolis, IN, USA. A stock solution of 1 mM LY2121260 was prepared in 12.5 mM Hepes pH 7.4 with 80% DMSO. Results are shown as means ± SEM, and statistical significance was analysed by the two-tailed Student's t-test. P values of <0.05 were considered statistically significant. The structural analysis of mutations was carried out using the crystal structure of human GK [18] and visualized using the Pymol Molecular Graphics System (Schrödinger).

Assay [8] has as its target T2, Wild-type GST-GK. Described as above. Here is the method: as §1, §2
The target in assay [9] is T1, GST-GK(p.Ala449Thr). The assay is described as follows: Inhibition of glucokinase activity by human GKRP. The conditions noted are these: 5 mM glucose; GKRP 0 to 200 nM; 10 µM S6P or 0.2 mM F1P. The procedure: Purified human GKRP was kindly provided by KJ Brocklehurst (Cardiovascular and Gastrointestinal Department, AstraZeneca, Macclesfield, Cheshire SK10 4TG, UK). The effect of GKRP on glucokinase activity was determined as described. The final reaction mixture contained 25 mM Hepes pH 7.1; 25 mM KCl; 1 mM NADP, 1 mM ATP-MgCl2; 2.5 mM MgCl2; 5 mM ß-mercaptoethanol, 1 U/ml glucose-6-phosphate dehydrogenase, 61 nM of GST-GK or 180 nM GST-GK(pAla449Thr), 5 mM glucose, GKRP (0 to 200 nM) and, when indicated, 10 µM sorbitol-6-phosphate (S6P) or 0.2 mM fructose-1-phosphate (F1P). In these conditions, GST-GK(pAla449Thr) activity in the absence of GKRP was 0.8±0.09 U/mg of protein.
Figure 2 Effect of mutation p.Ala449Thr on the GK interaction with GKRP. A) Inhibition of glucokinase activity by human GKRP. Enzyme activity was measured at 5 mM glucose as described in Material and Methods, in the presence of 10 µM S6P (left panel) or 0.2 mM F1P (right panel). Results are means ± SEM for three independent enzyme purifications assayed in triplicate. B) Two-hybrid interaction of GBD-GKRP with GAD-GK or GAD-GK(p.Ala449Thr) mutant. Yeast strain Y187 was used, and fusion proteins were expressed from pGBKT7 and pACTII derivatives. Values are means ± SEM from ß-galactosidase activity of six independent transformants.

Consider `O=C(CO)[C@@H](O)[C@@H](O)[C@H](O)[C@H](O)CO` [MH, mannoheptulose], for which the IC50 at GST-GK(p.Ala449Thr) [1] (read-out: I50 for MH) turned out to be 670 ± 40 µM; on Wild-type GST-GK [2] (read-out: I50 for MH), 1150 ± 370 µM; on GST-GK(p.Gly223Ser) [3] (read-out: I50 for MH), 3550 ± 630 µM.

On to `CC(=O)N[C@@H]1[C@@H](O)[C@H](O)[C@@H](CO)O[C@H]1O` [NAG, N-acetylglucosamine], for which the IC50 is 200 ± 60 µM on GST-GK(p.Ala449Thr) [1] (read-out: I50 for NAG), 210 ± 40 µM on Wild-type GST-GK [2] (read-out: I50 for NAG) and 380 ± 45 µM at GST-GK(p.Gly223Ser) [3] (read-out: I50 for NAG). For the same molecule, the “effect of mutation on inhibition by NAG” value on GST-GK(p.Ala449Thr) [1] (vs wild type) is on record as “did not affect the inhibition”.

In the case of `CCCCCCCCCCCCCCCC(=O)SCCNC(=O)CCNC(=O)[C@H](O)C(C)(C)COP(=O)(O)OP(=O)(O)OC[C@H]1O[C@@H](n2cnc3c(N)ncnc32)[C@H](O)[C@@H]1OP(=O)(O)O` [palmitoyl-CoA], the “decrease of I50 for palmitoyl-CoA vs wild type” value on GST-GK(p.Ala449Thr) [4] is reported as roughly 26%. In addition, the IC50 at GST-GK(p.Ala449Thr) [4] (glucose 1, 1.5 and 2 mM, 180 nM protein, read-out: I50 for palmitoyl-CoA) was 2.24 ± 0.14 µM; at Wild-type GST-GK [5] it was 3.06 ± 0.27 µM; at GST-GK(p.Gly223Ser) [6] it was 1.42 ± 0.13 µM.

`CS(=O)(=O)c1ccc([C@@]2(C(=O)Nc3nccs3)C[C@H]2C2CCCCC2)cc1` [LY2121260] yielded an S0.5 for glucose on GST-GK(p.Ala449Thr) [7] (10 µM GK activator, 0.8% DMSO) of 3.1 ± 0.3 mM. The “effect on S0.5” value on GST-GK(p.Ala449Thr) [7] (10 µM activator) is listed as “did not affect”. For the same molecule, on Wild-type GST-GK [8] (10 µM GK activator, 0.8% DMSO, wild type with buffer = 100), the “Kcat (%)” value stood at 130.8±3.9 %. In addition, on Wild-type GST-GK [8] (10 µM activator), the “increase of Kcat” value is given as “about 30%” and the “increase of affinity for glucose” value was “about 5 fold”.

B1: GKRP: purified human glucokinase regulatory protein, competitive inhibitor with respect to glucose (protein, UniProt Q14397 1-625, looked up)
Glucokinase regulatory protein: MPGTKRFQHVIETPEPGKWELSGYEAAVPITEKSNPLTQDLDKADAENIVRLLGQCDAEIFQEEGQALSTYQRLYSESILTTMVQVAGKVQEVLKEPDGGLVVLSGGGTSGRMAFLMSVSFNQLMKGLGQKPLYTYLIAGGDRSVVASREGTEDSALHGIEELKKVAAGKKRVIVIGISVGLSAPFVAGQMDCCMNNTAVFLPVLVGFNPVSMARNDPIEDWSSTFRQVAERMQKMQEKQKAFVLNPAIGPEGLSGSSRMKGGSATKILLETLLLAAHKTVDQGIAASQRCLLEILRTFERAHQVTYSQSPKIATLMKSVSTSLEKKGHVYLVGWQTLGIIAIMDGVECIHTFGADFRDVRGFLIGDHSDMFNQKAELTNQGPQFTFSQEDFLTSILPSLTEIDTVVFIFTLDDNLTEVQTIVEQVKEKTNHIQALAHSTVGQTLPIPLKKLFPSIISITWPLLFFEYEGNFIQKFQRELSTKWVLNTVSTGAHVLLGKILQNHMLDLRISNSKLFWRALAMLQRFSGQSKARCIESLLRAIHFPQPLSDDIRAAPISCHVQVAHEKEQVIPIALLSLLFRCSITEAQAHLAAAPSVCEAVRSALAGPGQKRTADPLEILEPDVQ
Turning to B1, in the assay with GST-GK(p.Ala449Thr) [9], the “enzymatic inhibition by GKRP, mutant vs wild type” value is listed as “the same”.
